Here are results for five compounds from paper PMC12113681, “Discovery, Biological Evaluation and Binding Mode Investigation of Novel Butyrylcholinesterase Inhibitors Through Hybrid Virtual Screening” (Molecules, 2025).

SMILES strings stand for the structures. Entries after “also recorded” stand apart in the source; their conditions may differ. Like-named read-outs stand apart in the source and are kept apart here.

For orientation: IC50 means the concentration needed to halve the response being measured. The Kd is the free concentration of one partner at which half of the binding sites on the other are occupied at equilibrium, for simple one-to-one binding. What is called viability is a per cent measure of how many cells are alive, often set against a control. What is called Ki is the dissociation constant of the complex between target and ligand, obtained from inhibition or displacement. Read a high Ki as weaker binding.

Data set [1] concerns PC12 cells. As to the kind of experiment: in vitro. The note with it: PC-12 cells. As for the experimental part:
(§1) Well-differentiated rat adrenal pheochromocytoma cells (PC12) and the corresponding culture medium (WHAA24F163) were obtained from Procell Life Technology Co., Ltd. (Wuhan, China). The culture medium was supplemented with 10% fetal bovine serum (FBS, 164210-50) and 1% antibiotics (a penicillin–streptomycin mixture). PC12 cells were seeded into sterile 96-well plates at a density of 7000 cells per well (100 μL) and incubated for 24 h in a humidified incubator at 37 °C with 5% CO2. Subsequently, the cells were treated with varying concentrations of the test compounds (10, 20, and 50 μM in 100 μL) and cultured for an additional 24 h. Cell viability was assessed using the 3-(4,5-dimethylthiazol-2-yl)-2,5-diphenyltetrazolium bromide (MTT) assay (Xavier, Wuhan, China), following protocols described in a prior study.

The target in data set [2] is T1, BChE (horse-serum, E.C. 3.1.1.8) (Equus caballus, UniProt P81908).
T1 construct: Sigma, St. Louis, MO, USA, horse-serum, E.C; 3.1.1.8; purchased Sigma; host or cells: horse serum
As to the kind of experiment: biochemical. As for the experimental part:
The inhibitory activity of BChE was evaluated using 96-well plates on a microplate reader (Varioskan LUX, Thermo Fisher, Waltham, MA, USA) based on a modified Ellman method. Briefly, 25 μL of BChE solution (0.2 U·mL^−1, Sigma, St. Louis, MO, USA, horse-serum, E.C. 3.1.1.8) was combined with 65 μL of phosphate buffer (PBS, 0.1 M, pH 8.0), 125 μL of 5,5′-dithio-bis(2-nitrobenzoic acid) (DTNB, 3 mM), and 10 μL of a test compound at varying concentrations. Small molecules (50 mM, Topscience) were initially dissolved in dimethyl sulfoxide (DMSO) and subsequently diluted to desired concentrations using PBS. The reaction mixture was preincubated at 37 °C for 20 min. Following this, 25 μL of butyrylthiocholine iodide (BTC, 15 mM) was added, and the absorbance was measured at 412 nm in 30-s intervals for 3 min.

Data set [3] has as its system PC12 cells. As to the kind of experiment: Neuroprotection in H2O2-induced injury model, MTT assay. It is filed as cell-based. The conditions noted are these: for neuroprotective activity: 5 to 50 μM; for viability at 50 µM: Rattus norvegicus, PC-12, read-out: cell viability. As for the experimental part: To assess the neuroprotective potential of the compounds, an H2O2-induced injury model in PC12 cells was established. PC12 cells were seeded into 96-well plates and incubated for 24 h, as described previously. […].
Background: Tetrazolium dyes change colour on reduction, which living cells bring about.

Data set [4] has as its target T2, BChE (Equus caballus, UniProt P81908). Put plainly: Fluorescence quenching experiment (Stern-Volmer, Van't Hoff analysis). The conditions noted are these: for quenching rate constant (Kq): τ0 10^−8 s; for Kd: Ka (binding constant); for ∆H / ∆S: Van't Hoff, 298-310 K, regarded as a constant. Type of data set: binding. As for the experimental part:
Then, the Stern–Volmer Equation (1) was applied to analyze their quenching mechanisms.
Their binding constants (Ka) and binding sites (n) (Table 4) with BChE were calculated using the double logarithmic Equation (2) (Figure 5G,H).
Thermodynamic parameter analysis offers valuable insights into the predominant interaction forces governing the binding process between ligand and protein, which may encompass hydrogen bonding, electrostatic interactions, hydrophobic effects, van der Waals forces, and π-effects. By applying the Van’t Hoff Equation (3) and the Gibbs–Helmholtz Equation (4), the thermodynamic parameters—including change (ΔS), enthalpy change (ΔH), and Gibbs free energy change (ΔG)—for the interactions of piboserod and Rotigotine at various temperatures.
Fluorescence quenching experiment. The fluorescence intensity of the inhibitor–BChE complex was measured using a microplate reader with an all-black 96-well plate at three different temperatures (298, 304, and 310 K). The excitation wavelength was set to 280 nm, and the emission spectrum was scanned over the range of 320–460 nm with a slit width of 5 nm. The BChE concentration was maintained constant at 5 U·mL^−1, while the compound concentration was varied in a gradient (0 to 50 μM). After mixing the compound and BChE, the samples were incubated at the designated temperature for 30 min prior to measurement. A PBS solution was used as a blank to account for background fluorescence and ensure accurate correction of the fluorescence intensity measurements.

The target of data set [5] is T2, BChE. Put plainly: BChE enzyme kinetic study (Lineweaver-Burk). Type of data set: biochemical. Also noted: Sigma, St. Louis, MO, USA, horse-serum, E.C; 3.1.1.8; purchased Sigma; host or cells: horse serum. The conditions noted are these: for inhibition type: Lineweaver-Burk plots; for reversibility of inhibition: plots of v vs [BChE] at different inhibitor concentrations. As to the method:
Kinetic studies were performed to clarify the inhibition mechanism of piboserod and Rotigotine. Figure 4A,B illustrates the relationship between BChE concentration ([BChE]) and catalytic rate (v) at different inhibitor concentrations ([I]). […] Lineweaver–Burk plots were used to characterize their inhibition types. […]. The inhibition constant (Ki) values were calculated based on Lineweaver–Burk secondary plots (Figure 4C,D). […]. […].
Kinetic studies were conducted to measure reaction rates using the same methodology as in the enzyme inhibition experiments. […]. The relationship between reaction rates and enzyme concentrations was used to assess whether the inhibition was reversible. Additionally, reaction rates (v, △OD417 ·min^−1) were measured at a constant BChE concentration (0.2 U·mL^−1) while varying substrate concentrations (0.05, 0.1, 0.2, 0.4, 0.8 mM). A double-reciprocal Lineweaver–Burk plot of reaction rate versus substrate concentration was generated to elucidate the inhibition type based on the intersection points of the curves. Common inhibition types were identified as follows: competitive (intersects on the Y-axis), non-competitive (intersects on the X-axis), uncompetitive (parallel lines), and mixed (intersects in the second or third quadrant). […]

The nature of data set [6]: in vitro. The note with it: rat. As to the method:
as §1

Where [7] appears, read: PC-12 cells, hydrogen peroxide injury.

T2 sequence (P81908 whole entry): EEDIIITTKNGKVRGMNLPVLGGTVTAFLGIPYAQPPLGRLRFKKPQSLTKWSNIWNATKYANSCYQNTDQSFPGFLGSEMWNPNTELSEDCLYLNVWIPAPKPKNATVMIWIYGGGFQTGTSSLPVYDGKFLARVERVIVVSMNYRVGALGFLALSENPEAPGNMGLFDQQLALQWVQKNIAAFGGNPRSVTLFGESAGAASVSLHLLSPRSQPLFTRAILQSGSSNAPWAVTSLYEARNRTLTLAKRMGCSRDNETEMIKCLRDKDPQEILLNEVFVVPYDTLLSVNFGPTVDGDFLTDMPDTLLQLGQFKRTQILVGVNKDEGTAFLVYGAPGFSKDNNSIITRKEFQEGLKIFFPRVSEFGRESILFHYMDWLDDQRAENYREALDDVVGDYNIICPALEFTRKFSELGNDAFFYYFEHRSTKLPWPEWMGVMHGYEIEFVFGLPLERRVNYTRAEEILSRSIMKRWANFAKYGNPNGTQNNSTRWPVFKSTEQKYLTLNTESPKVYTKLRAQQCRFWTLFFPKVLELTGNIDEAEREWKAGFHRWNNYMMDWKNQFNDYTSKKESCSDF
T1 sequence (P81908 whole entry): as above

Consider `CN1C[C@H](CNC(=O)OCc2ccccc2)C[C@@H]2c3cccc4c3c(cn4C)C[C@H]21` [Metergoline], for which the neurotoxicity result in data set [1] (lowest concentration (10 μM)) is reported as “no neurotoxicity”. The cytotoxicity entry in data set [1] (maximum concentration) was “higher cytotoxicity than that of Tacrine”. This compound displayed an IC50 in data set [2] of 18.4 ± 3.29 µM. In addition, in data set [3] (PC-12 cells, hydrogen peroxide injury, low concentrations (5–10 μM)), the neuroprotective effect entry is given as “modest neuroprotective effects”.

As to `CCCN(CCc1cccs1)[C@H]1CCc2c(O)cccc2C1` [Rotigotine], in data set [4] (298 K), the Ksv was 2640 L/mol, the “n (binding sites)” value is listed as 1.066, the “∆G” value was -5.067 kcal/mol and the “quenching rate constant (Kq)” value was found to be 2.64e+11 M⁻¹ s⁻¹. Binding in data set [4] (298 K) was characterised by a dissociation constant (Kd) of 19.7 µM. In data set [4] (304 K), the Ksv is 2250 L/mol; the “n (binding sites)” value stood at 1.022; the “∆G” value is -4.787 kcal/mol; the affinity, expressed as Kd, was 34.5 µM. In data set [4] (310 K), the Ksv was found to be 1540 L/mol, the “n (binding sites)” value is listed as 0.975 and the Kd was 68.1 µM. Also, in data set [4], the “∆H” value was -18.98 kcal/mol and the “∆S” value is −195.34 J·mol^−1·K^−1. In addition, in data set [2], the IC50 was determined as 12.8 ± 4.22 µM. Further, the neuroprotective activity entry in data set [3] (setting [7]) is “significant neuroprotective activities”. For the same compound, the viability at 50 µM in data set [3] is 70%. Besides, in data set [5], the Ki stood at 6.76 µM, the inhibition type result was “non-competitive inhibitor; also recorded: non-competitive inhibition” and the reversibility of inhibition entry is listed as “reversibly inhibit BChE”.

With `COc1cc2c(NC3CCN(C)CC3)nc(N3CCCN(C)CC3)nc2cc1OCc1ccccc1` [TM2-115], in data set [2] (read-out: IC50), the IC50 is roughly 50 µM.

Take `Nc1c2c(nc3ccccc13)CCCC2` [Tacrine]: the viability at 50 µM in data set [6] turned out to be 65%.

For the compound `CCCCN1CCC(CNC(=O)c2c3n(c4ccccc24)CCCO3)CC1` [piboserod], in data set [4] (298 K), the Ksv amounted to 5250 L/mol, the “n (binding sites)” value is 1.052, the “∆G” value was -5.373 kcal/mol and the “quenching rate constant (Kq)” value stood at 5.25e+11 M⁻¹ s⁻¹. For the same compound, the Kd in data set [4] (298 K) is 11.6 µM. Besides, in data set [4] (304 K), the Ksv was found to be 4720 L/mol; the “n (binding sites)” value was found to be 1.035; the “∆G” value is -5.308 kcal/mol; the affinity, expressed as Kd, was 14.9 µM. In data set [4] (310 K), the Ksv turned out to be 4250 L/mol, the “n (binding sites)” value turned out to be 1.014, the “∆G” value was -5.244 kcal/mol and binding was put at a Kd of 20.4 µM. For the same compound, in data set [4], the “∆H” value is -8.549 kcal/mol and the “∆S” value is reported as −44.61 J·mol^−1·K^−1. This compound also registered an IC50 in data set [2] of 15.3 ± 3.84 µM. In addition, the neuroprotective activity entry in data set [3] (setting [7]) is given as “significant neuroprotective activities”. In addition, the viability at 50 µM in data set [3] was 66%. In data set [5], the affinity, expressed as Ki, was 10.7 µM; the inhibition type entry was “mixed inhibitor; also recorded: mixed-type inhibition”; the reversibility of inhibition entry was “reversibly inhibit BChE”. Further, in data set [5] (Lineweaver-Burk secondary plots), the “α value (ratio of non-competitive to competitive inhibition constants)” value worked out at 3.01.
